Laboratory results from patent publication US11007206B2, “Cyclic boronic acid ester derivatives and therapeutic uses thereof” (Melinta Subsidiary Corp., priority 2012, dated 2021).

Tests used:
[1] = Single-dose pharmacokinetics of Compound I, intravenous 30-minute infusion in Beagle dogs (Example 5); type: in vivo; conditions: Dog; for AUC / Cmax / half-life: Beagle, in vivo
Experimental: (§1) Example 5 provides the single-dose pharmacokinetic studies of Compound I inpreclinical species, including intraperitoneal administration to Swiss-Webster mice and intravaneous administration to Sprague-Dawley rats, Beagle dogs, and Cynomologus monkeys.
(§2) Intravaneous doses of Compound I were administered as 30-minute infusions. The pharmacokinetics of Compound I were also studied with coadministration of the carbapenem, Biapenem. Compound I concentrations were determined using an LC-MS detection method.

[2] = Plasma pharmacokinetics of Compound I and Biapenem alone or in combination after 1.5 hour intravenous infusion in Sprague-Dawley rats (Example 3); type: in vivo; conditions: Sprague-Dawley rats; for AUC / clearance / half-life: male, Sprague-Dawley, rat, plasma, iv, 20 mg/kg, 1.5 hour intravenous infusion
Experimental: Example 3 provides a summary of the pharmacokinetic studies of Compound I alone or in combination with Biapenem following a single intravenous infusion dose in Sprague-Dawley rats. The pharmacokinetics of 20 mg/kg of Compound I, 20 mg/kg of Biapenem, and 20 mg/kg of Compound I in combination with 20 mg/kg of Biapenem after a 1.5 hour intravenous infusion were discussed.
Biapenem power was purchased from Hisun Pharmaceuticals. Compound I was prepared using the method described in the U.S. Publication 2012/0040932 A1. 20 mg of biapenem was dissolved in 0.1 M NaH2PO4 for a basic stock solution. 100 mg of Compound I was dissolved in 30% 1N NaOH to ˜pH 5.0. For animal studies, these stock solutions were further diluted in 0.9% saline to the appropriate concentration.
The specifications for animals used on this study were as follows: • Species: Rat • Strain: Sprague-Dawley • Gender: Male • Source: Charles River (Hollister, Calif.) • Number of Animals: 3 per study • Body Weight Range: 230-280 g at the start of the study
After acclimation, rats (n=3) were administered single 20 mg/kg intravenous infusion doses of Compound I or Biapenem alone or in combination. Doses were infused over 1.5 hours via an indwelling femoral vein cannula. Plasma (˜0.3 mL) samples were collected from each rat at designated time points up to 24 hours. The time points are shown in section 2.9. Blood samples were centrifuged within 5 min of collection at 12000 g for 5 min to obtain plasma. The plasma samples were stored on −80° C. until analyzed.
Compound I standard curves were prepared in rat plasma from 0.1 to 100 μg/mL. 50 μl aliquots of sample were placed in 1.5 mL microcentrifuge tubes. 20 μl of Compound II (10 μg/mL) was added as internal standard to each sample or standard. 20 μl of 30% trichloroacetic acid was then added to each sample or standard. The samples were mixed using a vortex mixer centrifuged for 10 min at 15,000 RPM using a tabletop centrifuge. The supernatant (approx. 120 μl) was removed and added to 100 μl of water in a 96-well plate. The samples were mixed again using a vortex mixer. 10 μl of each sample was injected onto an HPLC-MS for quantification.
The HPLC-MS conditions for Compound I analysis are as follows: • Column: Phenomenex Fusion-RP or equivalent reversed-phase column, 5 um, 50×2 mm. • Flow rate: 0.6 mL/min. • Mobile phase A: 0.1% formic acid in water. • Mobile phase B: 0.1% formic acid in acetonitrile. • Gradient: 5-60% B in 1.5 min. • Mass spectrometer: Negative ion mode with electrospray ionization. • MS/MS: Compound I-Q1-m/e=296, Q3-m/e=234. • Compound II-Q1-m/e=331, Q3-m/e=201.
Biapenem standard curves were prepared in 50% plasma-50% 1M MOPS buffer, pH=7.4 from 1 to 250 ug/mL. 20 uL of sample or standard was added into a 96-well deep well plate. Then 500 uL of 10% water-45% methanol-45% acetonitrile containing 2 ug/mL of meropenem was used as an internal standard. The plate was vortexed for 15 min. at 3,000 RPM. 50 uL of supernatant was removed and added 300 uL of water. 10 uL of samples were injected onto an HPLC-MS system for quantification.
The HPLC-MS conditions for Biaphenem analysis are as follows: • Column: Supelco Discovery HS F5 or equivalent pentafluorophenyl column, 5 um, 50×2.1 mm. • Flow rate: 0.6 mL/min. • Mobile phase A: 0.1% formic acid in water. • Mobile phase B: 0.1% formic acid in acetonitrile. • Gradient: 5-70% B in 1.9 min. • Mass spectrometer: Positive ion mode with electrospray ionization. • MS/MS: Biapenem-Q1-m/e=350.8, Q3-m/e=110.1. • meropenem-Q1-m/e=384.1, Q3-m/e=141.1
Plasma concentrations were fit using a two compartment IV infusion model (WinNonlinVersion 5.3, Pharsight Corp, Mountain View, Calif.).

[3] = Single-dose pharmacokinetics of Compound I, intravenous 30-minute infusion in Sprague-Dawley rats (Example 5); type: in vivo; conditions: Rat; for AUC / Cmax / half-life: Sprague-Dawley, in vivo
Experimental: as §1, §2

P. aeruginosa = assay: Potency of Biapenem with or without Compound I against P. aeruginosa (Example 4); type: cell-based; conditions: P. aeruginosa
[4] = 20 mg/kg Compound I in combination with 20 mg/kg Biapenem

**Q.** Which AUC ([1]; 2 mg/kg IV) does the source give for `O=C(O)C[C@@H]1CC[C@H](NC(=O)Cc2cccs2)B(O)O1` [Compound I] here?
**A.** 6130 ± 650 ng·h/mL

**Q.** What about the Cmax ([1]; 2 mg/kg IV) of the same compound?
**A.** 6490 ± 310 ng/mL

**Q.** What about the half-life ([1]; 2 mg/kg IV) of the same compound?
**A.** 39.6 ± 3.6 min

**Q.** And the AUC ([1]; 6 mg/kg IV)?
**A.** 18400 ± 2360 ng·h/mL

**Q.** And the Cmax ([1]; 6 mg/kg IV)?
**A.** 19600 ± 1420 ng/mL

**Q.** And the half-life ([1]; 6 mg/kg IV)?
**A.** 42.6 ± 5.4 min

**Q.** What about the AUC ([1]; 20 mg/kg IV) of the same compound?
**A.** 73600 ± 5380 ng·h/mL

**Q.** What about the Cmax ([1]; 20 mg/kg IV) of the same compound?
**A.** 66800 ± 6160 ng/mL

**Q.** What about the half-life ([1]; 20 mg/kg IV) of the same compound?
**A.** 91.8 ± 43.8 min

**Q.** What about the “CL or CL/F” value ([1]; 2 mg/kg IV) of the same compound?
**A.** 5.5 ± 0.5 mL/min/kg

**Q.** What about the “CL or CL/F” value ([1]; 6 mg/kg IV) of the same compound?
**A.** 5.5 ± 0.67 mL/min/kg

**Q.** What about the “CL or CL/F” value ([1]; 20 mg/kg IV) of the same compound?
**A.** 4.5 ± 0.33 mL/min/kg

**Q.** What about the “Plasma pharmacokinetic parameters, alone versus in combination” value ([2]; single intravenous infusion) of the same compound?
**A.** unchanged

**Q.** What about the AUC [2, 4] of the same compound?
**A.** 10400 ± 1150 ng·h/mL

**Q.** And the clearance [2, 4]?
**A.** 32.5 mL/min/kg

**Q.** And the half-life [2, 4]?
**A.** 23.4 ± 6.6 min

**Q.** What about the AUC ([2]; administered alone) of the same compound?
**A.** 11000 ± 860 ng·h/mL

**Q.** What about the clearance ([2]; administered alone) of the same compound?
**A.** 33 mL/min/kg

**Q.** What about the half-life ([2]; administered alone) of the same compound?
**A.** 43.2 ± 9 min

**Q.** And the “CL or CL/F” value ([3]; 20 mg/kg IV)?
**A.** 28.3 ± 1 mL/min/kg

**Q.** What about the AUC ([3]; 20 mg/kg IV) of the same compound?
**A.** 12200 ± 430 ng·h/mL

**Q.** And the Cmax ([3]; 20 mg/kg IV)?
**A.** 19800 ± 840 ng/mL

**Q.** What about the half-life ([3]; 20 mg/kg IV) of the same compound?
**A.** 96 ± 10.2 min

**Q.** What about the AUC ([3]; 50 mg/kg IV) of the same compound?
**A.** 28200 ± 2000 ng·h/mL

**Q.** And the Cmax ([3]; 50 mg/kg IV)?
**A.** 45900 ± 2000 ng/mL

**Q.** And the half-life ([3]; 50 mg/kg IV)?
**A.** 270 ± 80.4 min

**Q.** And the “Enhancement of Biapenem potency by the addition of Compound I” value (P. aeruginosa)?
**A.** no enhancement
